The values below are quoted from earlier work in patent US20230172854A1 (UNIWERSYTET HUMANISTYCZNO-PRZYRODNICZY IM JANA DLUGOSZA W …, priority 2020, published 2023).

The conditions of the data set: estimated.

Broadly, the bioavailability is dose-corrected exposure relative to a reference, in per cent. Turning to `CCCCC(=O)N(Cc1ccc(-c2ccccc2-c2nnn[nH]2)cc1)[C@H](C(=O)O)C(C)C` [valsartan], the bioavailability is recorded as 25%.
